Experimental data published in patent US20160083429A1, “COMPOSITIONS AND METHODS FOR ENDOTOXIN NEUTRALIZATION” (Immunotrex Biologics, Inc., priority 2014, published 2016).

Experiments:
[1] = ESI-MS detection of peptide-Lipid-A complex formation; format: binding; conditions: CHL/MeOH/H2O solutions; D-Lipid-A 0.005 mg/mL
Procedure: In this example, electrospray ionization mass spectrometry experiments were carried out on Lipid-A (D-Lipid-A) and peptides WK-11, KK-12, KK-11 under a variety of solution and mass spectrometry conditions. Binding of D-Lipid-A to WK-11, KK-12, KK-11 peptides was observed by mass spectrometry methods, as quite abundant ion (LipidA-peptide) complexes were detected from CHL/MeOH/H2O solutions.
Materials: Three peptides KFFKKFFKFFKK (SEQ ID NO: 1; KK-12), WKKWWKKWWKK (SEQ ID NO: 2; WK-11), and KKKKFFFKFFK (SEQ ID NO: 3; KK-11) were ordered from a custom commercial synthesis. Diphosphoryl Lip-A (D-Lipid-A) (C94O25N2P2H178) was obtained from Sigma.
Chemicals: chloroform (CHL), methanol (MeOH), Water (H2O), triethylamine (TEA), ammonium acetate.
Instrumentation: Micro-TOF ESI-MS (Bruker Daltonics); Q-Star-XL nano-ESI-MS (AB-SCIEX).
Solubility studies were performed in order to optimize the solubility of both the peptides and diphosphoryl Lipid A. Solution conditions for electrospray ionization mass spectrometry experiments on diphosphoryl Lipid A and peptides were evaluated using (CHL)X(MeOH)Y(H2O)Z, where X=0-70%; Y=0-70%; and Z=0-95%.
In one experiment, Diphosphoryl Lipid A (0.005 mg/mL) and WK-11 (0.005 mg/mL) were dissolved in 70% CHL/30% MeOH/0.5% water and evaluated by ESI-MS. Electrospray ionization mass spectrometry (ESI-MS) of peptide WK-11 and Lipid-A and detection of complex formation is shown in FIG. 6. Single circles show fragments assigned to the peptide. Double circles show lipid A bound to peptide WK-11.
In another experiment, Diphosphoryl Lipid A (0.005 mg/mL) and KK-12 (0.005 mg/mL) were dissolved in 70% CHL/30% MeOH/0.5% water and evaluated by ESI-MS. Single circles show fragments assigned to the peptide. Double circles show lipid A bound to peptide KK-12.
In another experiment, Diphosphoryl Lipid A (0.005 mg/mL) and KK-11 (0.015 mg/mL) were dissolved in 30% CHL/68% MeOH/2% water and evaluated by ESI-MS. Single circles show fragments assigned to the peptide. Double circles show lipid A bound to peptide KK-11.

THP-1 cell line = assay: Peptides block effect of LPS in THP-1 cell line; format: cell-based, human; conditions: THP-1 stimulated with LPS 1 mg/mL, treated after 24 hours with peptide 0.5 mg/mL
Procedure: THP-1 is a human monocytic cell line derived from an acute monocytic leukemia patient. It is typically used to test immunocytochemical analysis of protein-protein interaction and immunohistochemistry. THP-1 cell line can provide continuous culture, grown in suspension, for example, RPMI 1640+10% FBS+2 mM L-glutamine. The average doubling time is 35 to 50 hrs. To inhibit bacterial growth, 1 mM sodium pyruvate, penicillin (100 units/mL) or streptomycin (100 ug/mL) can be employed. Cultures are typically maintained at between 2-9×10^5 cells/mL at 37 degrees C., and 5% CO2. The cells are generally non-adhesive.
THP-1 cell line in culture was stimulated with 1 mg/mL LPS.
In contrast, THP-1 stimulated with LPS (1 mg/mL) and then treated after 24 hours with Peptide 1 (KK-12)(SEQ ID NO: 1) (0.5 mg/mL).

[2] = ESI-MS competition ranking of Lipid A-binding propensities of peptides; conditions: for relative binding affinity Ka with D-Lipid-A, competition KK-12 vs KK-11 / relative binding affinity Ka with D-Lipid-A, competition WK-11 vs KK-12 / relative binding affinity Ka with D-Lipid-A, competition WK-11 vs KK-11: 0.0032 mg/mL each peptide; for relative binding affinity Ka with D-Lipid-A, competition KK-12 vs KK-11: D-lipid-A 0.005 mg/mL; for relative binding affinity Ka with D-Lipid-A, competition WK-11 vs KK-12: D-lipid-A 0.001-0.0050 mg/mL, FIG. 20A; for relative binding affinity Ka with D-Lipid-A, competition WK-11 vs KK-12 / relative binding affinity Ka with D-Lipid-A, competition WK-11 vs KK-11: R-ratios; for rank order of relative binding affinities (Ka) to D-lipid-A, combined data of Example 4: combined competition data; for relative binding affinity Ka with D-Lipid-A, competition WK-11 vs KK-11: increasing D-lipid-A, FIG. 20B
Text: ESI-MS based methods were used to rank binding affinities of peptides WK-11, KK-12, and KK-11 to diphosphoryl lipid A in CHL/MeOH/H2O, 45%/55%/0.05%, unless otherwise specified.
Materials and Chemicals were the same as shown in Example 3.
Instrumentation included Micro-TOF ESI-MS (Bruker Daltonics); FT-ICR-MS NanoDrop-2000 UV-Vis Spectrophotometer.
A series of ESI-MS competition experiments were designed to determine relative binding intensities of peptide-lipid A complexes in ESI-MS while varying the concentration of the D-lipid-A.
Then, an equal concentration of both peptides was employed, while increasing the concentration of the D-lipid-A in three experiments, as shown in FIGS. 12-14. Double circles surround lipid-A bound to peptide WK-11 (“1”) or lipid-A bound to KK-12 (“2”).
Resultant signal intensities of peptides and their complexes with D-lipid-A were used to plot R-ratios, determined as in Eq. 1, against D-Lipid-A concentrations.
R═Itotal(peptide:Lipid)/Itotal(peptide) [Eq. 1]
Comparison of the corresponding R-functions allows us to rank the peptides Ka binding constants, assuming that the value of the ratio between signal-response factors of complexes is approximately the same or deviates only weakly from the one for corresponding free peptides.
Then, an equal concentration of both peptides was employed, while increasing the concentration of the D-lipid-A in three experiments, two of which are shown in FIGS. 17-18. Double circles surround lipid-A bound to peptide WK-11 (“1”) or lipid-A bound to KK-11 (“2”).
Resultant signal intensities of peptides and their complexes with D-lipid-A were used to plot R-ratios, determined as in Eq. 1, against D-Lipid-A concentrations, as in Example 4B.

Row | Substance | binding to Lipid A (complex formation detected by ESI-MS) [1] | effect on LPS-stimulated THP-1 cells (cell adherence, outer membrane shape and color) (THP-1 cell line) | relative binding affinity Ka with D-Lipid-A, competition KK-12 vs KK-11 [2] | relative binding affinity Ka with D-Lipid-A, competition WK-11 vs KK-12 [2] | rank order of relative binding affinities (Ka) to D-lipid-A, combined data of Example 4 [2] | relative binding affinity Ka with D-Lipid-A, competition WK-11 vs KK-11 [2]
1 | Angiotensin (DRVYIHPFHL; Angiotensin-1; UniProt P01019 25-34, looked up) [control standard peptide with size similar to KDEON peptides, reference compound] | no sign of binding propensity to D-Lipid-A | – | – | – | – | –
2 | KFFKKFFKFFKK [KK-12] | specifically binds to Lipid A | appears to reverse the effects of LPS | Ka(KK-11)>Ka (KK-12) | Ka(WK-11)>Ka(KK-12) | Ka(WK-11)≧Ka(KK-11)>Ka(KK-12) | –
3 | WKKWWKKWWKK [WK-11] | specifically binds to Lipid A | – | – | Ka(WK-11)>Ka(KK-12) | Ka(WK-11)≧Ka(KK-11)>Ka(KK-12) | Ka(WK-11)≧Ka(KK-11)
4 | KKKKFFFKFFK [KK-11] | specifically binds to Lipid A | – | Ka(KK-11)>Ka (KK-12) | – | Ka(WK-11)≧Ka(KK-11)>Ka(KK-12) | Ka(WK-11)≧Ka(KK-11)
